Holding throughout (experiment): DTP human tumour cell line panel, 48 h
Assay [1] relates to M14 melanoma.
The subject of assay [2] is K-562 leukemia.
For assay [3], the system named is A498 renal.
Assay [4] concerns MALME-3M melanoma.
The test system of assay [5] is SNB-75 CNS.
Assay [6] deals with U251 CNS.
In assay [7] the test system is RXF 393 renal.
Assay [8] deals with COLO 205 colon.
Assay [9] deals with LOX IMVI melanoma.
Assay [10] relates to OVCAR-8 ovarian.
Assay [11] relates to T-47D breast.
The subject of assay [12] is UO-31 renal.
The test system of assay [13] is SK-OV-3 ovarian.

Here are results for ten compounds from PubChem BioAssay (NCI).

The term TGI denotes the concentration giving total growth inhibition. Lower therefore signals more potent growth arrest.

The structures appear in SMILES notation.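 Briefly, cells in 96-well plates were exposed to five compound concentrations for 48 h, and endpoints were estimated by linear interpolation. Definition used: TGI = concentration required for complete inhibition of growth.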

In the case of `OCCCCCNc1c2ccccc2nc2ccccc12`, the TGI in assay [1] stood at 6.91 µM; in assay [2], 14.2 µM; in assay [3] it was 12.7 µM; in assay [4] it was 4.15 µM; in [5], 12.5 µM; in assay [6] it was 20.8 µM. Moreover, the TGI was determined as 10.9 µM in assay [7]; 4.54 µM in assay [8]; 4.7 µM in assay [9]; 8.72 µM in [10]; 8.38 µM in assay [11]; 10 µM in assay [12]. Moreover, the TGI in assay [13] was determined as 13.7 µM.

On to `CN(CCC#N)c1ccc(/C=C2\SC(=S)NC2=O)cc1`, for which the TGI in assay [1], in [2], in [3], in assay [4], in assay [5] and in assay [6] was over 100 µM each time. In addition, the TGI was 96.9 µM in assay [7]; over 100 µM in assay [8]; 36.2 µM in [9]; over 100 µM in assay [10]; over 100 µM in assay [11]; over 100 µM in [12]. Further, the TGI in assay [13] was over 100 µM.

Turning to `O=C(CN1c2ccccc2Sc2ccccc21)N1CCNCC1`, the TGI in [1], in assay [2], in assay [3], in assay [4], in assay [5] and in [6] was over 100 µM in each case. Further, the TGI in [7], in [8], in [9], in [10], in assay [11] and in assay [12] was over 100 µM each time. In assay [13], this compound had a TGI of over 100 µM.

For `C[C@@]12[C@H]3CC[C@@H]1[C@H](O)C(=O)N2CC3`, the TGI in assay [1], in [2], in assay [3], in assay [4], in assay [5] and in [6] was over 100 µM in each case. In addition, the TGI in [7], in [8], in assay [9], in [10], in assay [11] and in assay [12] was over 100 µM in each case. Further, the TGI in assay [13] was over 100 µM.

`C=C(C)C12CC(COC(=O)c3ccccc3)C34OC5(OC1C3C1OC1(CO)C(O)C1(O)C(OC(=O)c3ccccc3)C(C)C(C(C)CCCCCCC5O)C14)O2` (stereo not given): the TGI in assay [1] was over 100 µM; in assay [2], over 100 µM; in assay [3], over 100 µM; in assay [4], over 100 µM; in assay [5], over 100 µM; in [6], over 74.6 µM. In addition, the TGI in [7] is over 100 µM; in assay [8], 24.4 µM; in [9], over 100 µM; in assay [10], over 100 µM; in assay [11], over 100 µM; in assay [12], over 100 µM. In assay [13], this compound yielded a TGI of over 100 µM.

On to `OC1C2[C@@H](O)CCCN2C[C@@H](O)[C@H]1O` (stereo not given in full), for which the TGI in assay [1], in [2], in assay [3], in assay [4], in assay [5] and in assay [6] was over 100 µM each time. Moreover, the TGI in [7], in assay [8], in [9], in assay [10], in assay [11] and in assay [12] was over 100 µM each time. In assay [13], this compound showed a TGI of over 100 µM.

Take `O=C(CCCCCCCCC(=O)NN1C(=O)/C(=C\c2ccc(O)c(O)c2)SC1c1ccc(Cl)cc1)NN1C(=O)/C(=C\c2ccc(O)c(O)c2)SC1c1ccc(Cl)cc1` (stereo not given): the TGI in assay [1] was over 100 µM; in assay [2], over 75.9 µM; in assay [3], 69 µM; in assay [4], over 100 µM; in assay [5], over 100 µM; in assay [6], over 55.1 µM. Besides, the TGI is 46.2 µM in assay [7]; over 100 µM in assay [8]; 57.6 µM in assay [9]; 34 µM in assay [10]; over 100 µM in assay [11]; over 55 µM in [12]. Besides, the TGI in assay [13] was over 90.9 µM.

Consider `Cc1nc2c(sc(=S)n2-c2ccccc2)c2nc3ncccc3n12`, for which the TGI in assay [1] is over 100 µM; in assay [2], over 100 µM; in [3] it was over 100 µM; in assay [4], over 100 µM; in assay [5], 64.5 µM; in [6] it was over 100 µM. The TGI in assay [7], in [8], in [9], in [10], in assay [11] and in [12] was over 100 µM in each case. In [13], this compound gave a TGI of over 100 µM.

Regarding `COc1ccccc1N/C(=C\C(=O)C(=O)NC12CC3CC(CC(C3)C1)C2)c1ccccc1`, the TGI in [1], in assay [2], in assay [3], in [4], in [5] and in assay [6] was over 10 µM in each case. Also, the TGI in [7], in assay [8], in assay [9], in assay [10], in assay [11] and in [12] was over 10 µM throughout. The TGI in assay [13] is over 10 µM.

On to `CN(C)/N=N/c1nc2c(c(=O)n(C)c(=O)n2C)n1C`, for which the TGI in assay [1], in assay [2], in assay [3], in [4], in assay [5] and in assay [6] was over 100 µM in each case. Moreover, the TGI in assay [7], in assay [8], in assay [9], in assay [10], in assay [11] and in assay [12] was over 100 µM throughout. The compound further registered a TGI in assay [13] of over 100 µM.
